One data set deals with Myzus persicae. Briefly: Greenhouse trial on green peach aphids on cucumbers. The class given is in vivo. Conditions: Admire Pro 0.088 L product ha^−1; four applications. The procedure: Contact activity of Ta1b‐QA on green peach aphids (Myzus persicae (Sulzer, 1776)) on cucumbers in the greenhouse was performed in cooperation with A.C.D.S Research in North Rose, NY. The study was a randomized complete block design (RCBD), with treatments replicated six times, plots consisting of three pots each containing two to three plants. […] Treatments were applied four times, at 6–8‐day intervals, with a backpack CO2 sprayer in a spray volume of 374 L ha^−1. The number of aphids per plant was counted at regular intervals (0, 4, 11, 17, 23 and 29 d after first application). Cumulative insect‐days (defined as the area under the insect population curve as a measure of pest pressure) were calculated based on those six rating dates, then converted to % control relative to the untreated check using Abbott's formula. One replicate was removed due to a lack of pest pressure in the untreated check. Data were analyzed by one‐way ANOVA followed by a Tukey HSD LSM test with significance set at P < 0.05 (GraphPad Prism).

The next data set deals with Helicoverpa zea. Put plainly: Insecticidal activity by injection into fourth instar larvae. The class given is in vivo. The procedure:
Helicoverpa zea (Boddie, 1850) larvae were reared from eggs (Benzon, Carlisle, PA) to fourth instar on general purpose lepidopteran diet (F9772, Frontier Agricultural Sciences, Newark, DE). Pre‐weighed larvae immobilized on ice were injected into their penultimate proleg as described for M. domestica with 1 μL solution and eight larvae per treatment in at least triplicate. After injection, larvae were placed in a well of a 32‐well tray filled with 5 mL lepidopteran diet. The trays were then placed in an incubator at 28° C with 16:8 h light: dark cycle and evaluated 24 h after injection for mortality.
(§1) To compare the potency of Ta1b, we also injected the following active ingredients into M. domestica and H. zea: GS‐ω/κ (Spear, Vestaron), spinosad (Monterey Garden Insect Spray, Monterey), thiamethoxam (Optigard® Flex, Syngenta), and chlorantraniliprole (ALTACOR®, FMC).

The nature of data set [1]: Circular dichroism thermal denaturation. The class given is physicochemical. Conditions: CD ellipticity at 220 nm, 0.4–0.6 mg mL^−1 peptide in 10 mM sodium phosphate pH 7.0, 2°C min^−1 up to 95°C, Boltzmann sigmoidal fit, 3–4 replicates. How it is done:
Thermal denaturation profiles were collected on a Jasco‐J1500 CD spectrophotometer in a 0.2‐cm cuvette at a peptide concentration of 0.4–0.6 mg mL^−1 in 10 mM sodium phosphate, pH 7.0. Ellipticity was monitored at 220 nm every 1°C up to 95°C at a rate of 2°C min^−1. Denaturation curves were fitted with a Boltzmann sigmoidal function (GraphPad Prism) to determine the melting point (T m) for a single replicate. 3–4 replicates were run and the calculated T m values of each variant peptide was tested for a statistically significant difference relative to the rTa1b peptide or Ta1b‐QA commercial peptide, as appropriate, using an unpaired, two‐tailed, heteroscedastic student t's test (Microsoft Excel, Redmond, WA).
A general note: Circular dichroism is widely used to follow secondary structure.

Data set [2] can be described thus: Gut enzyme digestion, M. sexta gut extract. The class given is in vitro ADME, Manduca sexta. Conditions: M. sexta fifth instar gut extract diluted 10× in 30 mM Tris–HCl pH 8.8, 0.5–1 mg mL^−1 peptide, HPLC, single exponential decay fit. How it is done:
(§2) Larvae of H. zea, Spodoptera frugiperda Smith and Abbot, 1797, and Trichoplusia ni Hubner, 1802 were purchased from Benzon Research and reared to fifth instar on general purpose lepidopteran diet. Manduca sexta L. were purchased from Carolina Biological Supply (Burlington, NC) and reared to fifth instar on the supplied diet. Larvae were anesthetized on ice for 30 min, pinned on a dissection plate, and opened laterally with microdissection scissors. The foregut, midgut and hindgut were excised and washed using sterile water to remove any excess hemolymph and then transferred into a chilled 2‐mL microcentrifuge tube. The extracts were spun in a microcentrifuge at 10000 g to pellet the solids. The liquid fractions were carefully removed, sterile filtered, and stored at −80°C for future use.
(§3) For gut enzyme digestion studies, gut extract was diluted 10× with the dilution buffer (30 mM Tris–HCl, pH 8.8) and 0.5–1 mg mL^−1 of Ta1b. Samples were taken from the digestion mixture at defined timepoints and mixed with a 1:6 ratio of stop buffer (Tris–HCl pH 1–2) to halt further digest of the peptide. Samples were sterile filtered and analyzed by HPLC to determine peptide integrity and concentration.

A short description of data set [3]: Gut enzyme digestion, S. frugiperda gut extract. The class given is in vitro ADME, Spodoptera frugiperda. To be noted: pH 8.8; extract diluted ten-fold, single exponential decay fit, HPLC; read-out: Degradation half-life in S. frugiperda gut extract. How it is done: as §2, §3
A short description of data set [4]: Gut enzyme digestion, H. zea gut extract. Conditions: pH 8.8; extract diluted ten-fold, single exponential decay fit, HPLC; read-out: Degradation half-life in H. zea gut extract. The class given is in vitro ADME, Helicoverpa zea. The procedure:
as §2, §3

The next data set addresses T1, bovine trypsin (Bos taurus, UniProt P00760).
T1 construct: purchased Sigma-Aldrich
T1 sequence (P00760 24-246): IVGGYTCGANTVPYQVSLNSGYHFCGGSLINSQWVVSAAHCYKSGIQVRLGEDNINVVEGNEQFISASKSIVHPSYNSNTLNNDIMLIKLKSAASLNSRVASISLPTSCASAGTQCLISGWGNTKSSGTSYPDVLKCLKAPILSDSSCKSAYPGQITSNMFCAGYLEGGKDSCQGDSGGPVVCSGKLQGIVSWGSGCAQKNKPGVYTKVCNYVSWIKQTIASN
Briefly: Protease stability, commercial trypsin digestion. The class given is in vitro ADME. Conditions: pH 8.8, room temperature, HPLC chromatogram. The procedure:
(§4) For commercial enzyme digestion studies, bovine trypsin (Sigma‐Aldrich, St. Louis, MO) was prepared at a concentration of 1 mg mL^−1 in 50 mM Tris–HCl pH 8.8, 100 mM NaCl. Bovine chymotrypsin (Sigma‐Aldrich) was prepared at a concentration of 1 mg ml^−1 in 50 mM MES pH 6.0, 100 mM NaCl. For each digestion condition, 5 μL of trypsin or chymotrypsin solution were added to 200 μL of 10.7 mg mL^−1 peptide and incubated at room temperature. Samples were taken at defined timepoints, sterile filtered, and analyzed immediately by HPLC.

The nature of data set [5]: Protease stability, commercial trypsin digestion. The class given is in vitro ADME, bovine. To be noted: bovine trypsin 1 mg mL^−1 in 50 mM Tris–HCl pH 8.8, 100 mM NaCl; 5 μL added to 200 μL of 10.7 mg mL^−1 peptide; room temperature; HPLC; read-out: Degradation half life, Trypsin. The procedure:
as §4

Data set [6] in a line: Gut enzyme digestion, stated jointly for three lepidopteran gut extracts. The class given is in vitro ADME, H. zea, S. frugiperda, T. ni. Conditions: 10‐fold diluted gut extract, single exponential decay, followed up to 21 h. How it is done: as §2, §3
Data set [7] in a line: Gut enzyme digestion, T. ni gut extract. The class given is in vitro ADME, Trichoplusia ni. Conditions: pH 8.8; extract diluted ten-fold, single exponential decay fit, HPLC; read-out: Degradation half-life in T. ni gut extract. How it is done:
as §2, §3

The test system of a further data set is H. zea neonates. Briefly: Insecticidal activity by foliar spray (lettuce leaf disk feeding). The class given is in vivo, Helicoverpa zea. How it is done:
Organic romaine lettuce was cut into 30‐mm diameter disks and sterilized with a 140‐ppm bleach solution followed by a triple rinse in water. The lettuce disks were then sprayed on either side using a Potter Tower Sprayer (Burkard, Rickmansworth, England) with insecticidal solutions, allowing them to dry between sprays. Once fully sprayed and dried, disks were placed into an arena, which was a 32‐well rearing tray containing 5 mL of 1% w/v agar. One leaf disk was placed in each well and a single neonate H. zea was applied to each of the 12 leaf discs per treatment with four experimental replicates per treatment. The trays were then placed in a 28° C incubator with a 16:8 h light: dark cycle. Mortality was evaluated 4 days after application.

The test system of another data set is Musca domestica. Briefly: Insecticidal activity by injection into adult house flies. The class given is in vivo. The procedure:
Adult house flies (Musca domestica L.) were immobilized with CO2 gas and those with an average weight of 12–18 mg were selected for injection. Purified solutions of Ta1b and variants were diluted in water and injected into the dorsal thorax with a 1‐cc syringe and 30‐gauge needle using a hand microapplicator (Burkard, Rickmansworth, England). Each adult was injected with 0.5 μL of solution with 10 flies per treatment in at least triplicate. Water was used as a negative control. Flies were placed into a container with moist filter paper and scored for mortality 24 h post‐injection. Ten non‐injected flies were placed in a container to assess CO2 mortality. Response curves were fitted with a four‐parameter sigmoidal function (GraphPad Prism, Boston, MA) to determine LD50 values.
as §1

[8] abbreviates: injection, Supplementary Figure 4.
Setting [9] is: injection, Supplementary Table 1.

Broadly, the half-life is the time needed for the level to fall by half in the phase considered.

Bridges are numbered along the chain shown (N, C = ends). Where no end group is shown, it is not given here.

As for `O=[N+]([O-])NC1=NCCN1Cc1ccc(Cl)nc1` [imidacloprid], in the data set on Myzus persicae, the “Mean % control of cumulative insect‐days relative to the untreated check, reference standard” value came out at 90.4%.

Consider “EPDEICRARMTNKEFTYKSNVCNNCGDQVAACEAECFRNDVYTACHEAQKG (disulfide 6-36, 22-32, 25-45) [Ta1b]”, for which, in the data set on Helicoverpa zea (fourth instar larvae, 1 μL into penultimate proleg, mortality 24 h after injection, eight larvae per treatment, at least triplicate), the “Insecticidal LD50, injection, H. zea (95% CI)” value was 2.4 (1.7–3.4) nmol g^−1. For the same compound, the “LD50 against H. zea” value in the data set with Helicoverpa zea (setting [8]) came out at 2560 pmol/g. The “H. zea LD50 (95%CI)” value with Helicoverpa zea (setting [9]) was 2.4 (1.7-3.4) pmol/g. Also, the “Melting temperature Tm (± SEM)” value in data set [1] was 73.7 ± 0.4 °C. Besides, the “Degradation half life, Gut extract” value in [2] was “under 2 min”. Moreover, the half-life in [2] (read-out: Degradation half life, Gut extract) stood at 1.4 min; in [3], 26.4 min; in [4], 118 min; in data set [7], 38.1 min. The “Digestion by bovine trypsin (HPLC)” value at bovine trypsin is reported as “resulted in digestion of the peptide”. The half-life at 10.4 mg mL^-1 in [5] amounted to 288 min. Besides, the “Degradation half‐lives in gut extracts from H. zea, S. frugiperda, and T. ni” value in data set [6] lay in the range of 0.5 to 2 h. In the data set on H. zea neonates (100 μg cm^−2, neonates, compared to untreated), the “Day 4 mortality of H. zea on treated lettuce leaves, peptide alone” value is given as “no activity”. Also, the “Day 4 mortality of H. zea on treated lettuce leaves, peptide in combination with Btk” value in the data set with H. zea neonates (100 μg cm^−2 peptide with sublethal Btk 0.17 μg cm^−2, neonates) is on record as “no activity”. Moreover, the “Insecticidal LD50, injection, M. domestica (95% CI)” value with Musca domestica (adult house flies 12–18 mg, 0.5 μL into dorsal thorax, mortality 24 h post‐injection, 10 flies per treatment, at least triplicate, four‐parameter sigmoidal fit) is given as 0.27 (0.23–0.32) nmol g^−1. The “LD50 against house flies” value in the data set with Musca domestica (setting [8]) came to 310 pmol/g. Moreover, the “Housefly LD50 (95%CI)” value in the data set with Musca domestica (setting [9]) is listed as 0.27 (0.23-0.32) pmol/g.
